Laboratory results taken from publication PMC12488480, “A missing enzyme-rescue metabolite as cause of a rare skeletal dysplasia” (Nature, 2025).

How the values were obtained:
Type in all cases: biochemical
[1] = molecular target: T1, UXS1 (UDP-xylose synthase) (Homo sapiens, UniProt Q8NBZ7); assay: NaBH4 reduction of enzyme-bound NAD+ in recombinant UXS1, LC-MS of NADH and activity
T1 sequence (Q8NBZ7 1-420): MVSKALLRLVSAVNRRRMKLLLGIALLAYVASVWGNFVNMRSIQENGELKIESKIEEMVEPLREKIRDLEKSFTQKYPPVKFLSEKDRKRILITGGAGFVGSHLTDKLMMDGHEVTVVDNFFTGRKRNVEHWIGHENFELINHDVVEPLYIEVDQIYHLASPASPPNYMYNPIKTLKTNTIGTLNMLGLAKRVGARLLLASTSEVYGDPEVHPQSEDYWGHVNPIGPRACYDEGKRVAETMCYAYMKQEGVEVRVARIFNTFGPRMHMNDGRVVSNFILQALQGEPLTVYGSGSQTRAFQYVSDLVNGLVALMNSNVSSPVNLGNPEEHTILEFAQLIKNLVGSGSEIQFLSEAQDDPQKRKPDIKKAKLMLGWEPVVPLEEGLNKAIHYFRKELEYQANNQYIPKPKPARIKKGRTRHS

[2] = molecular target: T2, TGDS (dTDP-D-glucose 4,6-dehydratase) (Homo sapiens, UniProt O95455); assay: Recombinant enzyme assay, LC-MS
T2 construct: N-terminal hexahistidine-tag fused to amino acid 15 of TGDS
T2 sequence (O95455 15-350): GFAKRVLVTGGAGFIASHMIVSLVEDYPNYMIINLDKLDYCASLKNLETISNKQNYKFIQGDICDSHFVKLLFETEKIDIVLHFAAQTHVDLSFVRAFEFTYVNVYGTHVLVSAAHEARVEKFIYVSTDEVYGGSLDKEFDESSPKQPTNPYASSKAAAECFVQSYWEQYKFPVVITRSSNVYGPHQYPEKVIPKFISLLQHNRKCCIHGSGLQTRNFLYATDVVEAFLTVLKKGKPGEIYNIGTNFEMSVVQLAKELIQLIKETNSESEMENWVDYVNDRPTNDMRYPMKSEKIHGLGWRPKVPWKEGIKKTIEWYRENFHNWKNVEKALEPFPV

[3] = molecular target: T1, UXS1 (UDP-xylose synthase); assay: Recombinant enzyme assay, LC-MS

NC(=O)C1=CN([C@@H]2O[C@H](COP(=O)(O)OP(=O)(O)OC[C@H]3O[C@@H](n4cnc5c(N)ncnc54)[C@H](O)[C@@H]3O)[C@@H](O)[C@H]2O)C=CC1 [NADH]
NaBH4 reduction of enzyme-bound NAD+ in recombinant UXS1, LC-MS of NADH and acti [1]: This led to tenfold lower levels of NAD^+ and a concomitant increase in NADH

C[C@H]1O[C@H](OP(=O)(O)OP(=O)(O)OC[C@H]2O[C@@H](n3ccc(=O)[nH]c3=O)[C@H](O)[C@@H]2O)[C@H](O)[C@@H](O)C1=O [UDP-4k6dG, UDP-4-keto-6-deoxyglucose]
Recombinant enzyme assay, LC-MS [2]: TGDS produced a metabolite with identical m/z, elution time and hydration status as UDP-4-keto-6-deoxyglucose produced by fungal UG46DH

O=c1ccn([C@@H]2O[C@H](COP(=O)(O)OP(=O)(O)O[C@H]3OC[C@@H](O)[C@H](O)[C@H]3O)[C@@H](O)[C@H]2O)c(=O)[nH]1 [UDP-Xyl, UDP-xylose]
Recombinant enzyme assay, LC-MS [3]: We observed an almost complete recovery of UDP-xylose production, an increase of NAD^+
